From ChEMBL document CHEMBL3132769, “Fragment growing to retain or alter the selectivity of anchored kinase hinge-binding fragments” (Medchemcomm, 2014)

Columns and labels:
[1] = molecular target: Fibroblast growth factor receptor 4 (Homo sapiens) (UniProt P22455); assay: Inhibition of human FGFR4 catalytic domain expressed in baculovirus assessed as substrate phosphorylation using fluorescence-labelled peptides as substrate at 420 uM after 90 mins by microfluidic peptide phosphorylation assay
[2] = molecular target: T1, Serine/threonine-protein kinase D3 (Homo sapiens) (UniProt O94806); assay: Inhibition of human full length PKD3 expressed in baculovirus assessed as substrate phosphorylation using fluorescence-labelled peptides as substrate at 420 uM after 90 mins by microfluidic peptide phosphorylation assay
T1 sequence (whole entry): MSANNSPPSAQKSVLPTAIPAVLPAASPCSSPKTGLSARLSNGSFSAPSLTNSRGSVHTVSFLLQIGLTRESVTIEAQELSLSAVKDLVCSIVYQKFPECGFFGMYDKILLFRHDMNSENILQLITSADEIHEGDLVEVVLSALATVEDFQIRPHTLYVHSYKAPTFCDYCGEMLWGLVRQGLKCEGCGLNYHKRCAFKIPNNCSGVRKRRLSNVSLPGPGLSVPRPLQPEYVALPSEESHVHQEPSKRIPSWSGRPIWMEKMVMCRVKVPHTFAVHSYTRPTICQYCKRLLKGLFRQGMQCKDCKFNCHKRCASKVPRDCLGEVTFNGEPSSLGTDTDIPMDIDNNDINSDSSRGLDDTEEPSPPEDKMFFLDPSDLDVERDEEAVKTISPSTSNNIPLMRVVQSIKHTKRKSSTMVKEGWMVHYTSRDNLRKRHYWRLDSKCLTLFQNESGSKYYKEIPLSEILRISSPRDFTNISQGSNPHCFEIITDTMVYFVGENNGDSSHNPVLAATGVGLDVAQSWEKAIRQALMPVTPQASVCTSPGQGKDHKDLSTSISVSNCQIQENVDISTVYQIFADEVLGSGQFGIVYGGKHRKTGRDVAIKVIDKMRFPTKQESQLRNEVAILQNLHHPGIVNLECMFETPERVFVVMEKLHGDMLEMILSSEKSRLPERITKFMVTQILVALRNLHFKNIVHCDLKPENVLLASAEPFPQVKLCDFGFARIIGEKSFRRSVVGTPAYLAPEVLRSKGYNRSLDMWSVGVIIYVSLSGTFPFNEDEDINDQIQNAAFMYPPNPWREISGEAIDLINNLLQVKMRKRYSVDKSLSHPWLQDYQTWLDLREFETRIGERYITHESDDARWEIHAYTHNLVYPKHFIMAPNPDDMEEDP

[3] = molecular target: T2, Serine/threonine-protein kinase BRSK2 (Homo sapiens) (UniProt Q8IWQ3); assay: Inhibition of human truncated BRSK2 expressed in baculovirus assessed as substrate phosphorylation using fluorescence-labelled peptides as substrate at 9 uM after 90 mins by microfluidic peptide phosphorylation assay
T2 sequence (whole entry): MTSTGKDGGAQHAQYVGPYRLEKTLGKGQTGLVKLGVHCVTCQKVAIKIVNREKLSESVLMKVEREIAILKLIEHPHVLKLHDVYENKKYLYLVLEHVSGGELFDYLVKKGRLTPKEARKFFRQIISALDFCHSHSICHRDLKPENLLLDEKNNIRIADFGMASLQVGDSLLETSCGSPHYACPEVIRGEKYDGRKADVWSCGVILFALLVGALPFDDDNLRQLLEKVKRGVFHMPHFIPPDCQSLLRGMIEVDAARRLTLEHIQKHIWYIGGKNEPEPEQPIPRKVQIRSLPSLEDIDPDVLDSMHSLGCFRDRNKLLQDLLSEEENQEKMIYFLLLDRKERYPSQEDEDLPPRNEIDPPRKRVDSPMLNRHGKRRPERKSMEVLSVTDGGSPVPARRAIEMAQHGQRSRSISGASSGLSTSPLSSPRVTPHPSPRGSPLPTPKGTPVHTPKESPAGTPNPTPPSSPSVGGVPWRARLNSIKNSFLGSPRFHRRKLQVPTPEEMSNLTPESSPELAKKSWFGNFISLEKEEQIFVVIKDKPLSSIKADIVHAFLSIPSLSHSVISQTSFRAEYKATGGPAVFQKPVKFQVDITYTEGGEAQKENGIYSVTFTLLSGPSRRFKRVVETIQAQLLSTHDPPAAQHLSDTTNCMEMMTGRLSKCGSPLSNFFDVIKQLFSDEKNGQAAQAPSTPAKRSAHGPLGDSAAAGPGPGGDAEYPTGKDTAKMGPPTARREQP

[4] = organism: Homo sapiens; assay: Inhibition of human full length PKA expressed in baculovirus assessed as substrate phosphorylation using fluorescence-labelled peptides as substrate at 9 uM after 90 mins by microfluidic peptide phosphorylation assay
[5] = molecular target: T3, Serine/threonine-protein kinase Chk1 (Homo sapiens) (UniProt O14757); settings: 9 uM
T3 sequence (whole entry): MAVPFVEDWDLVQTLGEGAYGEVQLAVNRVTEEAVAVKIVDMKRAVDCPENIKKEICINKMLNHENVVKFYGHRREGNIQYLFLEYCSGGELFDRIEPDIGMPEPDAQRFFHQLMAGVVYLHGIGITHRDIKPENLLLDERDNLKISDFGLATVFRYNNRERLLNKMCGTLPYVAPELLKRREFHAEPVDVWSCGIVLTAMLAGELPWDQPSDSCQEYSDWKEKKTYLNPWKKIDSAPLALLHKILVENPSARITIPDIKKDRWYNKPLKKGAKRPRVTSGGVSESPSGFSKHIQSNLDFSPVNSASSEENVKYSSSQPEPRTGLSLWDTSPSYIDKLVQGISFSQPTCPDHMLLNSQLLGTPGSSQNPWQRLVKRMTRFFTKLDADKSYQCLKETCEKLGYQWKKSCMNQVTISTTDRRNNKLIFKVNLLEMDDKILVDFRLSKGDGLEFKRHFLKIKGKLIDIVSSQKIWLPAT
Description: Inhibition of human full length CHK1 expressed in baculovirus assessed as substrate phosphorylation using fluorescence-labelled peptides as substrate at 9 uM after 90 mins by microfluidic peptide phosphorylation assay

[6] = molecular target: Dual specificity tyrosine-phosphorylation-regulated kinase 1A (Rattus norvegicus) (UniProt Q63470); assay: Inhibition of rat full length DYRK1a expressed in Escherichia coli cell assessed as substrate phosphorylation using fluorescence-labelled peptides as substrate at […] after 90 mins by microfluidic peptide phosphorylation assay
[7] = molecular target: Calcium/calmodulin-dependent protein kinase type II subunit delta (Homo sapiens) (UniProt Q13557); assay: Inhibition of human full length CAMK2D expressed in baculovirus assessed as substrate phosphorylation using fluorescence-labelled peptides as substrate at 0.06 uM after 90 mins by microfluidic peptide phosphorylation assay
[8] = molecular target: Cyclin-dependent kinase 2 (Homo sapiens) (UniProt P24941); assay: Inhibition of human full length CDK2 expressed in baculovirus assessed as substrate phosphorylation using fluorescence-labelled peptides as substrate at 0.06 uM after 90 mins by microfluidic peptide phosphorylation assay
[9] = molecular target: Platelet-derived growth factor receptor alpha (Homo sapiens) (UniProt P16234); assay: Inhibition of human PDGFR alpha catalytic domain expressed in baculovirus assessed as substrate phosphorylation using fluorescence-labelled peptides as substrate at 8 uM after 90 mins by microfluidic peptide phosphorylation assay
[10] = molecular target: Calcium/calmodulin-dependent protein kinase type II subunit gamma (Homo sapiens) (UniProt Q13555); assay: Inhibition of human CAMK2 gamma catalytic domain expressed in baculovirus assessed as substrate phosphorylation using fluorescence-labelled peptides as substrate at 1000 uM after 90 mins by microfluidic peptide phosphorylation assay
Chain of Calcium/calmodulin-dependent protein kinase type II subunit gamma (Homo sapiens) (Q13555 whole entry, the tested form may be a part): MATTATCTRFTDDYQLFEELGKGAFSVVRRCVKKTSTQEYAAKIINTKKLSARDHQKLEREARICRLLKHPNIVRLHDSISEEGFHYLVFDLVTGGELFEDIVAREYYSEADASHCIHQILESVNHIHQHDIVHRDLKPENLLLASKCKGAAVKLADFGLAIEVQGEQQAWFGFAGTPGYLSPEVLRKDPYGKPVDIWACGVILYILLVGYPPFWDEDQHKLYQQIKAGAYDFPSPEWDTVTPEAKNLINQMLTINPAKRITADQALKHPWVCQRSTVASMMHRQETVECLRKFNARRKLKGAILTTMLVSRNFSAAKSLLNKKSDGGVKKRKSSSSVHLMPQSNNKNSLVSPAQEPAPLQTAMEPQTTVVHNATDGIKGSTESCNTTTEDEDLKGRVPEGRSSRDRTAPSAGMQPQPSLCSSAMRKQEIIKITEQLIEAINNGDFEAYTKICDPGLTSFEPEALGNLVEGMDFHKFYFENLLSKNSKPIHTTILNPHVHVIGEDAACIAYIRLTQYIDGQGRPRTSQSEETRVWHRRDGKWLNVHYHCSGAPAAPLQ

Chain of Calcium/calmodulin-dependent protein kinase type II subunit delta (Homo sapiens) (Q13557 whole entry): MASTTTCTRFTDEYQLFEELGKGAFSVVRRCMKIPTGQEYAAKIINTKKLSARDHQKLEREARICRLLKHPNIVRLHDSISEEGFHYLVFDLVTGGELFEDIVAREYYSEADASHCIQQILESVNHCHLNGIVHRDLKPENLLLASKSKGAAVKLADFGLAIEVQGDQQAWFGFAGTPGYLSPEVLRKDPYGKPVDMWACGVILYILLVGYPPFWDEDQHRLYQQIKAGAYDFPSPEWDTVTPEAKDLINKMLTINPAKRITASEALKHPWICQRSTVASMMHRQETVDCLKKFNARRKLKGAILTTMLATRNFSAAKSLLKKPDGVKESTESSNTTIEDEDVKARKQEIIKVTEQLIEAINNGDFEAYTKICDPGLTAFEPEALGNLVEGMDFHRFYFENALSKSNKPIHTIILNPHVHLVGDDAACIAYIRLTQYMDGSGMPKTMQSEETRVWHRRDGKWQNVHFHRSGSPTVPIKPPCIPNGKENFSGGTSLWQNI
Chain of Platelet-derived growth factor receptor alpha (Homo sapiens) (P16234 whole entry, the tested form may be a part): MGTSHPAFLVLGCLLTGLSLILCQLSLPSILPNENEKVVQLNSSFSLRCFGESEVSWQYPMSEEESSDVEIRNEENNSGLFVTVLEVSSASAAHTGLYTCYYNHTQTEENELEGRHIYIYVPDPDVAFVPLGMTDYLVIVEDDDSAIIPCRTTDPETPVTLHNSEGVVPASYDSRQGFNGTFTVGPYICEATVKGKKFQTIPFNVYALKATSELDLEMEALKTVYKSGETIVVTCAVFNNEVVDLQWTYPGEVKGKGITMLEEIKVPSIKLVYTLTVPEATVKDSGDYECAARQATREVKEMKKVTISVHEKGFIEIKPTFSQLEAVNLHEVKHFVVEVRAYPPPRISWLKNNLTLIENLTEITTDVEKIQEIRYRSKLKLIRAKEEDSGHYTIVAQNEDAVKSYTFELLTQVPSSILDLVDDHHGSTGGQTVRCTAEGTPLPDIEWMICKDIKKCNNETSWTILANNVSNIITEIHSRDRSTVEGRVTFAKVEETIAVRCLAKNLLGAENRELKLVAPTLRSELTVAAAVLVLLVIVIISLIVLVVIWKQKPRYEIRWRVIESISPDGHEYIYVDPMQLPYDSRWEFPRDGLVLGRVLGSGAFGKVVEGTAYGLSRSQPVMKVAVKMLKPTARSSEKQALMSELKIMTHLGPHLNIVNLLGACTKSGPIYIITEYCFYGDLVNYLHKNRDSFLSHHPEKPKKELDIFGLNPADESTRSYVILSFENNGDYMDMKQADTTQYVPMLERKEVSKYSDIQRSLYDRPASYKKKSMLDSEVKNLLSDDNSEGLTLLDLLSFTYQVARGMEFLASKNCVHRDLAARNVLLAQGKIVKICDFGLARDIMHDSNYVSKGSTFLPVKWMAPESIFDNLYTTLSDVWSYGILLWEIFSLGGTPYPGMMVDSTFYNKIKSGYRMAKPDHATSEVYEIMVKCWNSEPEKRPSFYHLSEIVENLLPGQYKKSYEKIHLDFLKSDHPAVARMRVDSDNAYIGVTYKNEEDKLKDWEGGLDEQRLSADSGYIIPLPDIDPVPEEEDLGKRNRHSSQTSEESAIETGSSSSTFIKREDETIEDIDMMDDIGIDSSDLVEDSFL
Chain of Fibroblast growth factor receptor 4 (Homo sapiens) (P22455 22-802 limits assumed): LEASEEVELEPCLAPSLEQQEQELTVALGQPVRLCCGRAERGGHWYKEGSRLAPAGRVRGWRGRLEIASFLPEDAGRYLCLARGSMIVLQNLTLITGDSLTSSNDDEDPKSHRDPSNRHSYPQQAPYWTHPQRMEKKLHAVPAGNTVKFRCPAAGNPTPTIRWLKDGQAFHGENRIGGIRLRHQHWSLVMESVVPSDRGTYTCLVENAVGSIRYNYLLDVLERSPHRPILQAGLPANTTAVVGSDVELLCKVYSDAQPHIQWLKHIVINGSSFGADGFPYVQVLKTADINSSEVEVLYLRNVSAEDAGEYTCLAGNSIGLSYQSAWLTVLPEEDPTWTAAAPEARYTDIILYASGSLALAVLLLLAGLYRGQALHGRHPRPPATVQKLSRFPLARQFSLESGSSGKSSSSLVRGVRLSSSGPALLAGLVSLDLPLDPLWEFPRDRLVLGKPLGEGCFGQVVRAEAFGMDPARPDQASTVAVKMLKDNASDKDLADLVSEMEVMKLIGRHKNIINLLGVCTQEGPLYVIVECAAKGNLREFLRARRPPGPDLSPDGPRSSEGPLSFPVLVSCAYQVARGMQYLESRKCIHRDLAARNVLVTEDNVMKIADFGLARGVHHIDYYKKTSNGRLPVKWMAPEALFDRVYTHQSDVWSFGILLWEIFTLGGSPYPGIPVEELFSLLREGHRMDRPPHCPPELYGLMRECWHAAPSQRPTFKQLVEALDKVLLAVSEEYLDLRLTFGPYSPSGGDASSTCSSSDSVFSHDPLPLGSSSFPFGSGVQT

c1nc(N2CCOCC2)c2nc[nH]c2n1
inhibition [1]: 75.5% | inhibition [2]: 85%

NCC1CN(c2ncnc3[nH]c4cnccc4c23)CCO1 (stereo not given)
inhibition [3]: 36% | inhibition [4]: 33.5% | inhibition [5]: 91%

COC(=O)c1cnc(Nc2cnc(C#N)cn2)cc1NCC1CCNCC1
inhibition [6]: 1.5%

NC1(Cc2ccc(Cl)cc2)CCN(c2ncnc3[nH]ccc23)CC1
inhibition [7]: 0% | inhibition [8]: 1%

NCC1CCN(c2ncnc3[nH]ccc23)CC1
inhibition [9]: 0%

c1cnc2[nH]ccc2c1
inhibition [10]: 24.5%
